Source: publication PMC3345088 (Journal of Immunology (Baltimore, Md. : 1950), 2012)

Test system: purified HLA class II DR, DP and DQ molecules
Assay: MHC-peptide binding assays
Design: species or system human
Conditions: allele as in inferred restricting HLA allele column

ESAT-6 73–87: 15-mer peptide epitope, residues 73–87 of ESAT-6 (Rv3875) (ARTISEAGQAMASTE; UniProt P9WNK7 73-87, looked up, fragment)
Binding to the allelic variant shared by all responders: high affinity

CFP10 52–66: 15-mer peptide epitope, residues 52–66 of CFP10 (Rv3874)
Binding to the allelic variant shared by all responders: high affinity
